Calls of active or inactive are those of the source. No cut-off for these calls is given here.
Key:
[1] = Solubility of the compound in DMSO; type: physicochemical
[2] = Octanol-phosphate buffered saline partition coefficient, log K of the compound; type: physicochemical; settings: for logD: octanol/phosphate buffered saline, read-out: log K
[3] = Solubility of the compound in methanol; type: physicochemical
Gallus gallus = species: Gallus gallus; assay: Binding affinity to monoamine transporter in dissociated chick brain stem cells assessed as receptor-mediated compound uptake; type: cell-based
HEK293 = assay: Binding affinity to human monoamine transporter expressed in HEK293 cells assessed as receptor-mediated compound uptake; type: cell-based
Rattus norvegicus [4] = assay: Toxicity in Sprague-Dawley rat assessed as change in mean breathing rate at 0.23 to 1 mM administered for 1 to 3 mins through polyethylene cannula in carotid artery measured after 200 to 400 seconds; type: organism-based; settings: in vivo, other, 1000 µM
Rattus norvegicus [5] = assay: Toxicity in Sprague-Dawley rat assessed as change in mean breathing rate at 0.23 to 1 mM administered for 1 to 3 mins through polyethylene cannula in carotid artery measured after 600 seconds; type: organism-based; settings: in vivo, other, 10 min, 1000 µM
MLO-Y4 = assay: Binding affinity to monoamine transporter in mouse MLO-Y4 cells assessed as receptor-mediated compound uptake at 20 uM by confocal microscopic analysis in presence of serotonin reuptake inhibitor clomipramine; type: cell-based
Rattus norvegicus [6] = assay: Toxicity in Sprague-Dawley rat assessed as prolonged reduction in NRM neurons activity at 0.23 to 1 mM administered for 1 to 3 mins through polyethylene cannula in carotid artery measured immediately post dose; type: organism-based; settings: in vivo, other, 1000 µM
[7] = Drug uptake in Sprague-Dawley rat blood platelet cells administered through intra-arterial injection by fluorescence microscopy analysis; type: ADME, cell-based; settings: in vivo, other
Rattus norvegicus [8] = assay: Toxicity in Sprague-Dawley rat assessed as change in blood pressure at 0.25 mM administered for 30 seconds through polyethylene cannula in carotid artery; type: organism-based; settings: in vivo, other, 250 µM
Brain = assay: Drug uptake in Sprague-Dawley rat brain administered through intra-arterial injection by fluorescence microscopy analysis; type: ADME, tissue-based; settings: in vivo, other
Rattus norvegicus [9] = assay: Toxicity in Sprague-Dawley rat assessed as change in heart rate at 0.25 mM administered for 30 seconds through polyethylene cannula in carotid artery; type: organism-based; settings: in vivo, other, 250 µM
Rattus norvegicus [10] = assay: Toxicity in Sprague-Dawley rat assessed as change in mean breathing rate at 0.25 mM administered for 30 seconds through polyethylene cannula in carotid artery; type: organism-based; settings: in vivo, other, 250 µM
Rattus norvegicus [11] = assay: Toxicity in Sprague-Dawley rat assessed as prolonged reduction in NRM neurons activity at 0.23 to 1 mM administered for 1 to 3 mins through polyethylene cannula in carotid artery measured 30 mins post dose; type: organism-based; settings: in vivo, other, 0.5 h, 1000 µM

Row | solubility [1] | logD [2] | solubility [3] | SMILES | Activity (Gallus gallus) | Activity (HEK293) | further results
1 | soluble | 0.28 | soluble | COc1cccc2c(OCCN)cccc12 | inactive | inactive | –
2 | – | -2.38 | – | NCCc1ccc(O)c(O)c1 [DOPAMINE] | – | – | –
3 | soluble | 0.65 | soluble | NCCn1cc2c(nc1=O)Nc1ccccc1S2 | Active | Active | –
4 | soluble | 0.1 | soluble | NCCOc1cccc2c(O)cccc12 | inactive | inactive | –
5 | soluble | -0.58 | soluble | NCCN1C(=O)c2cccc3c(N)ccc(c23)C1=O | Active | Active | Activity (Rattus norvegicus [4]): Non-toxic; Activity (Rattus norvegicus [5]): Non-toxic; Activity (MLO-Y4): inactive; Activity (Rattus norvegicus [6]): Toxic; Drug uptake [7]: Active; Activity (Rattus norvegicus [8]): Non-toxic; Drug uptake (Brain): Not Active; Activity (Rattus norvegicus [9]): Non-toxic; Activity (Rattus norvegicus [10]): Non-toxic; Activity (Rattus norvegicus [11]): Non-toxic
6 | – | – | – | CN[C@H]1CC[C@@H](c2ccc(Cl)c(Cl)c2)c2ccccc21 [SERTRALINE] | – | – | log K ([2]; octanol/water): 1.37

Row | SMILES | solubility [1] | logD [2] | solubility [3] | Activity (Gallus gallus) | Activity (HEK293) | further results
7 | NCCc1ccc2ccc3cccc4ccc1c2c34 | soluble | 1.42 | soluble | inactive | inactive | –
8 | NCCc1c2ccccc2cc2ccccc12 | soluble | 1.1 | soluble | inactive | inactive | –
9 | NCCc1c[nH]c2ccc(O)cc12 [SEROTONIN] | – | -1.57 | – | – | – | –

Source: ChEMBL document CHEMBL2146417, “Fluorescent reporters of monoamine transporter distribution and function” (Bioorg Med Chem Lett, 2011)
